Measured values: article PMC8878324, “Evaluation of New Antimicrobial Agents Based on tris(1H-Indol-3-yl)methylium Salts: Activity, Toxicity, Suppression of Experimental Sepsis in Mice” (Pharmaceuticals, 2022)
Like-named read-outs stand apart in the source and are kept apart here.

Test system: S. aureus 10
Experiment: Model of staphylococcal sepsis in mice
Type: in vivo
Conditions: for Death (%) / Survival Rate (%): 14 days; for Dead animals/survivors: 3 mg/kg
Description: To determine the ability of drugs to suppress staphylococcal sepsis, a clinical isolate of S. aureus 10, lacking drug resistance and adapted for use in animals, was used. Animals, divided into several experimental groups, were intravenously infected with a lethal dose of S. aureus (0.1 mL each) (Groups 1–5). […] Along with the testing of compounds of the trisndolylmethylium class, a similar experiment was carried out with levofloxacin, taken as a reference drug for a separate group of animals (Group 4). The control group of animals received an intravenous injection of 5% glucose solution instead of the tested preparations (Group 5). Another control group, which also received a single injection of 5% glucose solution, consisted of animals that were not exposed to infection (Group 6). To study each drug, 110–150 animals were required, which were divided into small subgroups of 10 mice each to test various doses of the compounds studied. The number of dead animals and the time of their death were recorded daily, and the appearance of the animals and their weight were assessed. The duration of the experiment was 14 days.
The study was conducted on adult female SHK mice (18–20 g) obtained from the animal breeding unit of the FMBA (Scientific Center for Biomedical Technologies of the Federal Biomedical Agency, Moscow, Russia). The animals were randomly divided into groups (n = 6 for the study of acute toxicity, n = 10 (or 8) to study the efficacy of suppressing staphylococcal sepsis). The study of the effectiveness of drugs in the treatment of staphylococcal sepsis required the use of 110–175 mice for each drug, 10 animals per group. The animal study was approved by the Ethics of Animal Experimentation of Gause Institute of New Antibiotics (protocol No 13/2019).
The experiment used a strain of S. aureus 10, having no drug resistance and adapted for use in animals. Initially, the 100% lethal dose (LD100) was determined for this pathogen strain in SHK mice, i.e., the dose of the pathogen at which the death of 100% of the animals was recorded. LD100 dose of staphylococcus detected in the experiment was 8.0 × 10^8 CFU/mouse, which was then used for infecting animals.
The chemotherapeutic efficacy of tris(indolyl)methane derivatives was determined in a model of staphylococcal sepsis in mice. Mice of the SHK colony, weighing 18–20 g, were infected intravenously (into the tail vein) with a lethal dose of staphylococcus (0.1 mL of solution). One hour after infection, mice were injected intravenously (0.2 mL of solution each) with the tested tris(indolyl)methane derivatives in the range of doses from 0.1 to 40 mg/kg. For tested drugs, we used solutions prepared in 5% glucose solution. The study of the effectiveness of each drug was conducted on 115–155 mice (10 mice per group). The duration of the experiment was 14 days. The number of dead animals and the time of their death were recorded daily, and the body weight of the animals was recorded three times a week. Their feed intake was monitored, and clinical signs of animal health were assessed daily.
To determine the effectiveness of the tested drugs, 50% effective doses (ED50) were used, which was determined by the Behrens method (frequency accumulation method), as well as by the Litchfield and Wilcoxon method using the StatPlus 2006 software. For all data, the mean and standard deviation were calculated. The differences were defined as significant at p ≤ 0.05.

[1] = 3 mg/kg i.v., Double administration
[2] = Staphylococcus aureus, 10, iv, 1 h
[3] = single i.v. 3.0 mg/kg 1 h after infection
[4] = single i.v. 5.0 mg/kg 1 h after infection
[5] = single i.v. 7.0 mg/kg 1 h after infection
[6] = single i.v. 9.0 mg/kg 1 h after infection
[7] = single i.v. 11.0 mg/kg 1 h after infection
[8] = single i.v. 13.0 mg/kg 1 h after infection
[9] = single i.v. 10.0 mg/kg 1 h after infection
[10] = single i.v. 15.0 mg/kg 1 h after infection
[11] = single i.v. 20.0 mg/kg 1 h after infection
[12] = single i.v. 25.0 mg/kg 1 h after infection
[13] = single i.v. 30.0 mg/kg 1 h after infection
[14] = single i.v. 35.0 mg/kg 1 h after infection
[15] = single i.v. 0.5 mg/kg 1 h after infection
[16] = single i.v. 1.0 mg/kg 1 h after infection
[17] = single i.v. 1.5 mg/kg 1 h after infection
[18] = single i.v. 1.75 mg/kg 1 h after infection
[19] = single i.v. 2.0 mg/kg 1 h after infection
[20] = single i.v. 4.0 mg/kg 1 h after infection
[21] = single i.v. 6.0 mg/kg 1 h after infection

## OCCCCCn1cc([C+](c2cn(CCCCCO)c3ccccc23)c2cn(CCCCCO)c3ccccc23)c2ccccc21.[Cl-] [Compound 1, tris(1-(5-Hydroxypentyl)-1H-indol-3-yl) methylium chloride]
[1]
  Death (%): 75%
  Survival Rate (%): 25%
Double, day 0
  Dead animals/survivors: 0/8
Double, day 3
  Dead animals/survivors: 0/8
Double, day 4
  Dead animals/survivors: 1/7
Double, day 6
  Dead animals/survivors: 3/5
Double, day 7
  Dead animals/survivors: 4/4
Double, day 8
  Dead animals/survivors: 4/4
Double, day 9
  Dead animals/survivors: 5/3
Double, day 10
  Dead animals/survivors: 6/2
Double, day 12
  Dead animals/survivors: 6/2
Double, day 14
  Dead animals/survivors: 6/2
One-time, day 0
  Dead animals/survivors: 0/8
One-time, day 3
  Dead animals/survivors: 1/7
One-time, day 4
  Dead animals/survivors: 2/6
One-time, day 6
  Dead animals/survivors: 4/4
One-time, day 7
  Dead animals/survivors: 5/3
One-time, day 8
  Dead animals/survivors: 5/3
One-time, day 9
  Dead animals/survivors: 6/2
One-time, day 10
  Dead animals/survivors: 7/1
One-time, day 12
  Dead animals/survivors: 7/1
One-time, day 14
  Dead animals/survivors: 7/1
Three-fold, day 0
  Dead animals/survivors: 0/8
Three-fold, day 3
  Dead animals/survivors: 0/8
Three-fold, day 4
  Dead animals/survivors: 1/7
Three-fold, day 6
  Dead animals/survivors: 2/6
Three-fold, day 7
  Dead animals/survivors: 3/5
Three-fold, day 8
  Dead animals/survivors: 3/5
Three-fold, day 9
  Dead animals/survivors: 4/4
Three-fold, day 10
  Dead animals/survivors: 5/3
Three-fold, day 12
  Dead animals/survivors: 5/3
Three-fold, day 14
  Dead animals/survivors: 5/3
[2]
  ED50: 7.6 mg/kg
Dose of 9–11 mg/kg, single i.v.
  survival rate: ~40%
[3]
  Death (%): 87.5%
  Survival Rate (%): 12.5%
[4]
  Death (%): 75%
  Survival Rate (%): 25%
[5]
  Death (%): 75%
  Survival Rate (%): 25%
[6]
  Death (%): 62.5%
  Survival Rate (%): 37.5%
[7]
  Death (%): 62.5%
  Survival Rate (%): 37.5%
[8]
  Death (%): 75%
  Survival Rate (%): 25%

## CCCn1cc([C+](c2cn(CCC)c3ccccc23)c2cn(C3=C(N)C(=O)NC3=O)c3ccccc23)c2ccccc21.[Cl-] [Compound 2, (1-(4-Amino-2,5-dioxo-2,5-dihydro-1H-pyrrol-3-yl)-1H-indol-3-yl)bis(1-propyl-1H-indol-3-yl) methylium chloride]
[2]
  ED50: 18.3 mg/kg
[4]
  Death (%): 80%
  Survival Rate (%): 20%
[9]
  Death (%): 70%
  Survival Rate (%): 30%
[10]
  Death (%): 60%
  Survival Rate (%): 40%
[11]
  Death (%): 40%
  Survival Rate (%): 60%
[12]
  Death (%): 40%
  Survival Rate (%): 60%
[13]
  Death (%): 20%
  Survival Rate (%): 80%
[14]
  Death (%): 30%
  Survival Rate (%): 70%

## CCCn1cc([C+](c2cn(CCC)c3ccccc23)c2cn(C3=C(N(C)C)C(=O)NC3=O)c3ccccc23)c2ccccc21 [Compound 3, 1-(4-Dimethylamino-2,5-dioxo-2,5-dihydro-1H-pyrrol-3-yl) -1H-indol-3-yl) bis(1-propyl-1H-indol-3-yl) methylium chloride]
Staphylococcus aureus, 10, single intravenous administration 1 h after infection, read-out: ED50
  ED50: 1.09 mg/kg
Experimental group 3
  first mortality, day of the experiment: 6 to 7 days
  last death, day of the experiment: 12 days
[15]
  Death (%): 70%
  Survival Rate (%): 30%
[16]
  Death (%): 50%
  Survival Rate (%): 50%
[17]
  Death (%): 40%
  Survival Rate (%): 60%
[18]
  Death (%): 10%
  Survival Rate (%): 90%
[19]
  Death (%): 0%
  Survival Rate (%): 100%

## C[C@H]1COc2c(N3CCN(C)CC3)c(F)cc3c(=O)c(C(=O)O)cn1c23 [Levofloxacin, levofloxacin, reference compound]
[2]
  ED50: 3.5 mg/kg
[16]
  Death (%): 90%
  Survival Rate (%): 10%
[19]
  Death (%): 60%
  Survival Rate (%): 40%
[20]
  Death (%): 40%
  Survival Rate (%): 60%
[21]
  Death (%): 30%
  Survival Rate (%): 70%
Single injection
  dose that saved the lives of 50% of infected animals: about 4 mg/kg
